Results as given in patent US20070128139A1, “Hair treatment compositions comprising hydroxy comopounds” (priority 2002, published 2007).

Test: cuticle abrasion test (hair washed with shampoo test composition, blended, cuticle recovered and weighed)
Conditions: freeze-dried cuticle weighed back after abrasion; 0.03M compound in base shampoo; 4 g hair washed twice in 0.4 g test composition; lower = less cuticle loss
Description: A base shampoo composition was prepared, comprising 12 wt % sodium lauryl ether sulphate (2EO), […] cocoamidopropyl betaine and 86 wt. % water.
To this base solution 0.03M of the following compounds was added:
The compositions were tested in a cuticle abrasion test. Root end hair (as received form the supplier) was pre-cleaned by washing for 1 minute in Composition I followed by copious rinsing in double deionised water. The hair was left to dry naturally over 24 hrs.
For each test, 4 g of hair was washed in 0.4 g of the test composition for 30 seconds, rinsed for 30 seconds, and the washing/rinsing cycle repeated. The hair was left to dry naturally overnight.
The hair was cut into 1 cm lengths, placed in a blender bucket and 200 ml of double de-ionized water was added. The blender was placed on full power for 1 minute. The liquor was decanted off and transferred to a 50 ml centrifuge tube and centrifuged for 10 minutes at 4,300 RPM. The resulting clear liquor was decanted off leaving the cuticle sediment at the bottom of the tube.
The cuticle was transferred from the tube into a beaker with 3×5 ml washes and passed through a series of sieves (425 and 53 microns). The sieves were washed with a further 2×10 ml of water to ensure complete recovery of the cuticle. The sample was made up to 50 ml in a centrifuge tube, centrifuged for 15 minutes and the liquor decanted off. The cuticle was transferred with double deionised water (2×10 ml washes) to a beaker and freeze-dried.
The freeze-dried cuticle was weighed back to determine percentage recovery.

| Compound | % recovery |
| --- | --- |
| CCC(C)(O)CCCC(C)C (stereo not drawn) [B, 3,7-dimethyl-3-octanol, reference compound] | 0.84% |
| CC(C)CC(C)O (stereo not drawn) [C, 4-methyl-2-pentanol, reference compound] | 0.79% |
| CCCCC(C)(C)O [Example 1, 2-methyl-2-hexanol] | 0.53% |
| CCCCCC(C)(C)O [Example 2, 2-methyl-2-heptanol] | 0.54% |
| CCCCC(O)C(C)C (stereo not drawn) [Example 3, 2-methyl-3-heptanol] | 0.55% |
| CCCC(C)(C)O [Example 4, 2-methyl-2-pentanol] | 0.58% |
| CCC(C)C(C)O (stereo not drawn) [Example 6, 3-methyl-2-pentanol] | 0.62% |
| CCCC(C)CO (stereo not drawn) [Example 7, 2-methyl-1-pentanol] | 0.64% |
| CCCC(C)(O)CC(C)C (stereo not drawn) [Example A, 2,4-dimethyl-4-heptanol, reference compound] | 0.84% |
